# In ChEMBL document CHEMBL4411298, “Small molecule-drug conjugates: A novel strategy for cancer-targeted treatment” (Eur J Med Chem, 2019):
# Key:
# [1] = Prodrug conversion assessed as half life for parent compound release at pH 5; type: ADME
# [2] = Drug metabolism assessed as half life for N-hydroxyethylvindesine release at pH 7.4
# [3] = Drug metabolism assessed as half life for N-hydroxyethylvindesine release at pH 5
# LNCaP = test: Growth inhibition of PSMA-positive human LNCAP cells; type: functional, cell-based
# KB [4] = test: Antitumor activity against human KB cells xenografted in mouse assessed as complete tumor reversion incidence at 0.5 umol/kg; type: functional
# KB [5] = test: Growth inhibition of human KB cells; type: functional, cell-based
# Homo sapiens [6] = species: Homo sapiens; test: Binding affinity to folate receptor in human KB cells after 1 hr in presence of [3H]-FA by scintillation counting assay relative to control; type: cell-based
# [7] = Half life in pH 7.4 buffer at 37 degC in presence of 8 mM DTT; type: physicochemical; details: pH 7.4 buffer with 8 mM DTT
# [8] = Half life in pH 7.4 buffer at 37 degC in presence of GSH; type: physicochemical; details: pH 7.4 buffer with GSH
# [9] = Drug metabolism assessed as half life for cleavage of disulfide bond at 1 mM pH 7.4 PBS in presence of DTT at 37 degC
# Homo sapiens [10] = species: Homo sapiens; test: Antitumor activity against NSCLC patients assessed as overall survival in presence of docetaxel in phase 2b clinical trial; type: functional
# Homo sapiens [11] = species: Homo sapiens; test: Antitumor activity against NSCLC patients assessed as progression-free survival in presence of docetaxel in phase 2b clinical trial; type: functional
# [12] = Drug metabolism assessed as half life for cleavage of disulfide bond at 1 mM pH 7.4 PBS in presence of 20 mM GSH at 37 degC
smiles,measurement,setting,value
CC[C@]1(O)C[C@H]2CN(CCc3c([nH]c4ccccc34)[C@@](C(=O)OC)(c3cc4c(cc3OC)N(C)[C@H]3[C@@](O)(C(=O)N/N=C(\C)c5ccc(N6C(=O)CC(SC[C@H](NC(=O)[C@H](CC(=O)O)NC(=O)[C@H](CC(=O)O)NC(=O)[C@H](CCCNC(=N)N)NC(=O)[C@H](CC(=O)O)NC(=O)CC[C@H](NC(=O)c7ccc(NCc8cnc9nc(N)[nH]c(=O)c9n8)cc7)C(=O)O)C(=O)O)C6=O)cc5)[C@H](O)[C@]5(CC)C=CCN6CC[C@]43[C@@H]65)C2)C1 (some centres undefined),t1/2,[1],330 min
CC[C@]1(O)C[C@H]2CN(CCc3c([nH]c4ccccc34)[C@@](C(=O)OC)(c3cc4c(cc3OC)N(C)[C@H]3[C@@](O)(C(=O)NCCOC(OC)c5ccc(OCCN6C(=O)CC(SC[C@H](NC(=O)[C@H](CC(=O)O)NC(=O)[C@H](CC(=O)O)NC(=O)[C@H](CCCNC(=N)N)NC(=O)[C@H](CC(=O)O)NC(=O)CC[C@H](NC(=O)c7ccc(NCc8cnc9nc(N)[nH]c(=O)c9n8)cc7)C(=O)O)C(=O)O)C6=O)cc5)[C@H](O)[C@]5(CC)C=CCN6CC[C@]43[C@@H]65)C2)C1 (some centres undefined),T1/2,[2],1320 min
same,T1/2,[3],25 min
CCCC(=O)OCN(C(=O)[C@@H](NC(=O)[C@H]1CCCCN1C)[C@@H](C)CC)[C@H](C[C@@H](OC(C)=O)c1nc(C(=O)N[C@@H](Cc2ccc(O)cc2)C[C@H](C)C(=O)NNC(=O)OCCSSC[C@H](NC(=O)[C@H](Cc2ccccc2)NC(=O)[C@H](CC(=O)O)NC(=O)CC[C@H](NC(=O)CC[C@@H](NC(=O)N[C@@H](CCC(=O)O)C(=O)O)C(=O)O)C(=O)O)C(=O)O)cs1)C(C)C,IC50,LNCaP,3 nM
CCCC(=O)OCN(C(=O)[C@@H](NC(=O)[C@H]1CCCCN1C)[C@@H](C)CC)[C@H](C[C@@H](OC(C)=O)c1nc(C(=O)N[C@@H](Cc2ccc(O)cc2)C[C@H](C)C(=O)NNC(=O)OCCSSC[C@H](NC(=O)[C@H](CC(=O)O)NC(=O)[C@H](CC(=O)O)NC(=O)[C@H](CCCNC(=N)N)NC(=O)[C@H](CC(=O)O)NC(=O)CC[C@H](NC(=O)c2ccc(NCc3cnc4nc(N)[nH]c(=O)c4n3)cc2)C(=O)O)C(=O)O)cs1)C(C)C,Activity,KB [4],80%
same,IC50,KB [5],7 nM
Nc1nc(=O)c2nc(CNc3ccc(C(=O)N[C@@H](CCC(=O)O)C(=O)O)cc3)cnc2[nH]1,relative binding affinity (RBA),Homo sapiens [6],1
CC[C@H](C)[C@H](NC(=O)[C@H]1CCCCN1C)C(=O)N(COC(=O)CC(C)C)[C@H](C[C@@H](OC(C)=O)c1nc(C(=O)N[C@@H](Cc2ccc(O)cc2)C[C@H](C)C(=O)NNC(=O)OCCSSC[C@H](NC(=O)[C@H](CC(=O)O)NC(=O)[C@H](CC(=O)O)NC(=O)[C@H](CCCNC(=N)N)NC(=O)[C@H](CC(=O)O)NC(=O)CC[C@H](NC(=O)c2ccc(NCc3cnc4nc(N)[nH]c(=O)c4n3)cc2)C(=O)O)C(=O)O)cs1)C(C)C,Activity,KB [4],80%
CC[C@]1(O)C[C@H]2CN(CCc3c([nH]c4ccccc34)[C@@](C(=O)OC)(c3cc4c(cc3OC)N(C)[C@H]3[C@@](O)(C(=O)NNC(=O)OC(C)C(C)SSC(C)(C)[C@H](NC(=O)[C@H](CC(=O)O)NC(=O)[C@H](CC(=O)O)NC(=O)[C@H](CCCNC(=N)N)NC(=O)[C@H](CC(=O)O)NC(=O)CC[C@H](NC(=O)c5ccc(NCc6cnc7nc(N)[nH]c(=O)c7n6)cc5)C(=O)O)C(=O)O)[C@H](O)[C@]5(CC)C=CCN6CC[C@]43[C@@H]65)C2)C1 (some centres undefined),half-life,[7],> 480 min
CC[C@]1(O)C[C@H]2CN(CCc3c([nH]c4ccccc34)[C@@](C(=O)OC)(c3cc4c(cc3OC)N(C)[C@H]3[C@@](O)(C(=O)NNC(=O)OCc5ccc(SSC[C@H](NC(=O)[C@H](CC(=O)O)NC(=O)[C@H](CC(=O)O)NC(=O)[C@H](CCCNC(=N)N)NC(=O)[C@H](CC(=O)O)NC(=O)CC[C@H](NC(=O)c6ccc(NCc7cnc8nc(N)[nH]c(=O)c8n7)cc6)C(=O)O)C(=O)O)cc5)[C@H](O)[C@]5(CC)C=CCN6CC[C@]43[C@@H]65)C2)C1,half-life,[7],< 5 min
same,half-life,[8],45 min
CC[C@]1(O)C[C@H]2CN(CCc3c([nH]c4ccccc34)[C@@](C(=O)OC)(c3cc4c(cc3OC)N(C)[C@H]3[C@@](O)(C(=O)NNC(=O)OCCSSC(C)(C)[C@H](NC(=O)[C@H](CC(=O)O)NC(=O)[C@H](CC(=O)O)NC(=O)[C@H](CCCNC(=N)N)NC(=O)[C@H](CC(=O)O)NC(=O)CC[C@H](NC(=O)c5ccc(NCc6cnc7nc(N)[nH]c(=O)c7n6)cc5)C(=O)O)C(=O)O)[C@H](O)[C@]5(CC)C=CCN6CC[C@]43[C@@H]65)C2)C1,half-life,[7],60 min
CC[C@]1(O)C[C@H]2CN(CCc3c([nH]c4ccccc34)[C@@](C(=O)OC)(c3cc4c(cc3OC)N(C)[C@H]3[C@@](O)(C(=O)NNC(=O)OCCSSC[C@H](NC(=O)c5ccc(NCc6cnc7nc(N)[nH]c(=O)c7n6)cc5)C(=O)O)[C@H](O)[C@]5(CC)C=CCN6CC[C@]43[C@@H]65)C2)C1,relative binding affinity (RBA),Homo sapiens [6],0.046
CC[C@]1(O)C[C@H]2CN(CCc3c([nH]c4ccccc34)[C@@](C(=O)OC)(c3cc4c(cc3OC)N(C)[C@H]3[C@@](O)(C(=O)NNC(=O)OCCSSC[C@H](NC(=O)[C@H](CC(=O)O)NC(=O)[C@H](CC(=O)O)NC(=O)[C@H](CCCNC(=N)N)NC(=O)[C@H](CC(=O)O)NC(=O)CC[C@H](NC(=O)c5ccc(NCc6cnc7nc(N)[nH]c(=O)c7n6)cc5)C(=O)O)C(=O)O)[C@H](O)[C@]5(CC)C=CCN6CC[C@]43[C@@H]65)C2)C1,T1/2,[9],5 min
same,Survival,Homo sapiens [10],10.9 months
same,Survival,Homo sapiens [11],7.1 months
same,relative binding affinity (RBA),Homo sapiens [6],0.47
same,T1/2,[12],60 min
CC[C@]1(O)C[C@H]2CN(CCc3c([nH]c4ccccc34)[C@@](C(=O)OC)(c3cc4c(cc3OC)N(C)[C@H]3[C@@](O)(C(=O)NNC(=O)OC(C)C(C)SSC[C@H](NC(=O)[C@H](CC(=O)O)NC(=O)[C@H](CC(=O)O)NC(=O)[C@H](CCCNC(=N)N)NC(=O)[C@H](CC(=O)O)NC(=O)CC[C@H](NC(=O)c5ccc(NCc6cnc7nc(N)[nH]c(=O)c7n6)cc5)C(=O)O)C(=O)O)[C@H](O)[C@]5(CC)C=CCN6CC[C@]43[C@@H]65)C2)C1 (some centres undefined),half-life,[7],30 min
